Reference: US5610063A, “cDNA for α-N-acetyl-galactosaminidase from Gallus domesticus” (Curators of the University of Missouri, priority 1995, dated 1997)

T1: Gallus N-acetyl-α-D-galactosaminidase (Gallus gallus, UniProt Q90744)
T1 construct: the cDNA clone corresponds to the region of the mRNA encoding the mature polypeptide for the chicken α-N-acetyl-galactosaminidase; from tissue; host or cells: chicken liver
T1 sequence (Q90744 1-405 S162A): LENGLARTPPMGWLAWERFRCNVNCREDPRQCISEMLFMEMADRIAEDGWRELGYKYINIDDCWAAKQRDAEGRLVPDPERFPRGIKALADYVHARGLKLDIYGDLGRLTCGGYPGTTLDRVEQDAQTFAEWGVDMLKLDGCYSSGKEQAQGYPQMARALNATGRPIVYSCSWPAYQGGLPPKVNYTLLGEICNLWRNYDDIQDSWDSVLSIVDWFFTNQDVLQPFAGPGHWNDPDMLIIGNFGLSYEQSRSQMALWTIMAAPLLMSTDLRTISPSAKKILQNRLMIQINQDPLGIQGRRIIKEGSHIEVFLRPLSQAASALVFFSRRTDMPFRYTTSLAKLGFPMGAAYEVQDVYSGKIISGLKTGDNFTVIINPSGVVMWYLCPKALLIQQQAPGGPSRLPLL


Legend:
[1] = molecular target: T1, Gallus N-acetyl-α-D-galactosaminidase; assay: Substrate specificity (relative activity); type: biochemical, Gallus domesticus; conditions: % of enzyme activity on the corresponding conjugate, 2.5 mM PNP conjugates, pH 3.5
[2] = substrate: CC(=O)N[C@H]1[C@@H](Oc2ccccc2[N+](=O)[O-])O[C@H](CO)[C@H](O)[C@@H]1O; assay: Kinetic parameters (Km, turnover number) of Gallus enzyme; type: biochemical, Gallus domesticus; conditions: other: Table III, Example 1 preparation, 50 mM Na citrate + 1 mg/ml BSA, pH 3.5, mean of six determinations, 37.0 °C
Protocol: (§1) The Kms for ONP- and PNP-N-acetyl-α-D-galactosaminide were determined by varying the substrate concentration in 50 mM Na citrate+1 mg/ml BSA, pH 3.5.

[3] = substrate: CC(=O)N[C@H]1[C@@H](Oc2ccc([N+](=O)[O-])cc2)O[C@H](CO)[C@H](O)[C@@H]1O; assay: as above; type: biochemical, Gallus domesticus
Protocol: as §1

[4] = substrate: O=[N+]([O-])c1ccc(O[C@H]2O[C@H](CO)[C@H](O)[C@H](O)[C@H]2O)cc1; assay: as above; type: biochemical, Gallus domesticus; conditions: other: Table III, Example 1 preparation, 50 mM Na citrate + 1 mg/ml BSA, pH 3.5, mean of six determinations, 37.0 °C
Protocol: as §1

[5] = Enzymatic activity quantitated during the purification; type: biochemical; conditions: Table V, improved (batch) purification; mean from three different preps
Protocol: Enzymatic activity was quantitated during the purification by measuring production of p-nitrophenol (PNP) from PNP-N-acetyl-α-D-galactosaminide or o-nitrophenol (ONP) from ONP-N-acetyl-α-D-galactosaminide. Enzyme aliquots were incubated in 200 μl of 50 mM Na citrate+1 mg/ml BSA+1.0 mM PNP-N-acetyl-α-D-galactosaminide, pH 3.5, at 37° C. The reactions were quenched with 1.0 ml of 0.25M Na2 CO3 and the OD 405 nm was measured. One unit of activity was defined as 1.0 μmole of substrate hydrolyzed per minute.

[6] = Table IV, Example 1 preparation
[7] = Table VI, improved purification (Example 2)
[8] = other: Example 2 batch preparation, pH 3.5, N=3, 37.0 °C
[9] = other: Table III, Example 1 preparation, 50 mM Na citrate + 1 mg/ml BSA, pH 3.5, mean of six determinations, 37.0 °C

Molecule | Relative Activity [1, 6] | Relative Activity [1, 7] | further results
CC(=O)N[C@H]1[C@H](Oc2ccc([N+](=O)[O-])cc2)O[C@H](CO)[C@@H](O)[C@@H]1O [PNP-N-acetyl-β-D-glucosaminide] | < 0.08% | < 0.08% | –
C[C@@H]1O[C@H](Oc2ccc([N+](=O)[O-])cc2)[C@@H](O)[C@H](O)[C@@H]1O [PNP-β-L-fucopyranoside] | < 0.08% | < 0.08% | –
Cc1cc(=O)oc2cc(O[C@H]3O[C@H](CO)[C@H](O)[C@H](O)[C@H]3O)ccc12 [4-MU-α-D-galactopyranoside] | 100.00% | 100.00% | –
C[C@@H]1O[C@@H](Oc2ccc([N+](=O)[O-])cc2)[C@@H](O)[C@H](O)[C@@H]1O [PNP-α-L-fucopyranoside] | < 0.08% | < 0.08% | –
CC(=O)N[C@H]1[C@H](Oc2ccc([N+](=O)[O-])cc2)O[C@H](CO)[C@H](O)[C@@H]1O [PNP-N-acetyl-β-D-galactosaminide] | < 0.08% | < 0.08% | –
CC(=O)NC1C(O)CC(Oc2ccc3c(C)cc(=O)oc3c2)(C(=O)O)OC1C(O)C(O)CO (stereo not drawn) [4-MU-N-acetyl-α-neuraminic acid] | < 0.01% | < 0.01% | –
CC(=O)N[C@H]1[C@@H](Oc2ccc([N+](=O)[O-])cc2)O[C@H](CO)[C@@H](O)[C@@H]1O [PNP-N-acetyl-α-D-glucosaminide] | < 0.08% | < 0.08% | –
O=[N+]([O-])c1ccc(O[C@@H]2O[C@H](CO)[C@@H](O)[C@H](O)[C@H]2O)cc1 [PNP-β-D-glucopyranoside] | < 0.08% | < 0.08% | –
CC(=O)N[C@H]1[C@@H](Oc2ccc([N+](=O)[O-])cc2)O[C@H](CO)[C@H](O)[C@@H]1O [PNP-N-acetyl-α-D-galactosaminide] | 100.00% | 100.00% | –
O=[N+]([O-])c1ccc(O[C@@H]2OC[C@H](O)[C@H](O)[C@H]2O)cc1 [PNP-α-L-arabinopyranoside] | < 0.08% | < 0.08% | –
O=[N+]([O-])c1ccc(O[C@H]2O[C@H](CO)[C@@H](O)[C@H](O)[C@H]2O)cc1 [PNP-α-D-glucopyranoside] | < 0.08% | < 0.08% | –
O=[N+]([O-])c1ccc(O[C@@H]2O[C@H](CO)[C@H](O)[C@H](O)[C@H]2O)cc1 [PNP-β-D-galactopyranoside] | < 0.08% | < 0.08% | –
Gallus N-acetyl-α-D-galactosaminidase (Gallus gallus) (protein, the cDNA clone corresponds to the region of the mRNA encoding the mature polypeptide for the chicken α-N-acetyl-galactosaminidase; from tissue; host or cells: chicken liver) LENGLARTPPMGWLAWERFRCNVNCREDPRQCISEMLFMEMADRIAEDGWRELGYKYINIDDCWAAKQRDAEGRLVPDPERFPRGIKALADYVHARGLKLDIYGDLGRLTCGGYPGTTLDRVEQDAQTFAEWGVDMLKLDGCYSSGKEQAQGYPQMARALNATGRPIVYSCSWPAYQGGLPPKVNYTLLGEICNLWRNYDDIQDSWDSVLSIVDWFFTNQDVLQPFAGPGHWNDPDMLIIGNFGLSYEQSRSQMALWTIMAAPLLMSTDLRTISPSAKKILQNRLMIQINQDPLGIQGRRIIKEGSHIEVFLRPLSQAASALVFFSRRTDMPFRYTTSLAKLGFPMGAAYEVQDVYSGKIISGLKTGDNFTVIINPSGVVMWYLCPKALLIQQQAPGGPSRLPLL | – | – | Km [2]: 2400 µM; kcat [2]: 637 Moles of substrate hydrolyzed per mole of enzyme per minute; Km [3, 8]: 0.86, S.D.=0.03 mM; kcat [3, 8]: 3318, S.D.=118.5 moles substrate/mole enzyme/minute; Km [3, 9]: 1190 µM; kcat [3, 9]: 2370 Moles of substrate hydrolyzed per mole of enzyme per minute; Km [4]: 10700 µM; kcat [4]: 201 Moles of substrate hydrolyzed per mole of enzyme per minute
Affinity Concentrate: purified α-N-acetyl-galactosaminidase after affinity column and concentration (Example 2) (protein, UniProt Q90744 1-405, looked up) Alpha-N-acetylgalactosaminidas …: LENGLARTPPMGWLAWERFRCNVNCREDPRQCISEMLFMEMADRIAEDGWRELGYKYINIDDCWAAKQRDAEGRLVPDPERFPRGIKALADYVHARGLKLDIYGDLGRLTCGGYPGTTLDRVEQDAQTFAEWGVDMLKLDGCYSSGKEQAQGYPQMARALNSTGRPIVYSCSWPAYQGGLPPKVNYTLLGEICNLWRNYDDIQDSWDSVLSIVDWFFTNQDVLQPFAGPGHWNDPDMLIIGNFGLSYEQSRSQMALWTIMAAPLLMSTDLRTISPSAKKILQNRLMIQINQDPLGIQGRRIIKEGSHIEVFLRPLSQAASALVFFSRRTDMPFRYTTSLAKLGFPMGAAYEVQDVYSGKIISGLKTGDNFTVIINPSGVVMWYLCPKALLIQQQAPGGPSRLPLL | – | – | Specific Activity [5]: 71.03 µmol/mg/min
